Reference: patent US20060275365A1, “Immediate-release and high-drug-load pharmaceutical formulations of micronised (4-chlorophenyl) [4-(4-pyridylmethyl)phthalazin-1-yl] and salts thereof” (priority 2005, published 2006)

Key:
[1] = system: VEGFR kinases; settings: not dependent on a specific ligand; cited from earlier work
[2] = Particle size volume distribution by laser diffraction (Sympatec Helos); type: physicochemical; settings: spherical particles presumed
Excerpt: When used herein, the term “micronised” is intended to mean that the particle size distribution is so that at least 90% of the particles have a particle diameter of less than 30 μm (calculated from the volume distribution curve under the presumption of spherical particles), i.e. a d90 value of at the most 30 μm. It is well-known to the skilled person that parameters used to describe a given particle size distribution may vary considerably dependent on the specific equipment and settings used. Therefore, it is important to note that whenever the terms “particle size distribution”, “particle diameter”, “d50”, “d90”, “d95”, “d99”, etc. are used herein it should be understood that the specific values or ranges used in connection therewith are always meant to be determined from the volume distribution curve under the presumption of spherical particles using laser diffraction and the conditions set forth in the section entitled “Determination of particle size distribution” herein.
Determination of the particle size volume distribution of pynasunate was performed by laser diffraction using the following equipment and settings: […]

Structure (SMILES)	inhibition of VEGFR kinases [1]	d50 particle size diameter [2] [μm]	d90 particle size diameter [2] [μm]
Clc1ccc(Nc2nnc(Cc3ccncc3)c3ccccc23)cc1 [(4-chlorophenyl)[4-(4-pyridylmethyl)-phthalazin-1-yl]]	inhibitor of all three VEGFR kinases		
Clc1ccc(Nc2nnc(Cc3ccncc3)c3ccccc23)cc1 [pynasunate, (4-chlorophenyl)[4-(4-pyridylmethyl)-phthalazin-1-yl]ammonium hydrogen succinate]		6	15
